Experimental data from publication PMC5635289, “Differential Effects of Angelicin Analogues on NF-κB Activity and IL-8 Gene Expression in Cystic Fibrosis IB3-1 Cells” (Mediators of Inflammation, 2017).

Columns and labels:
IB3-1 cells = test: Cell proliferation assay on IB3-1 cells; format: cell-based; details: Homo sapiens, cell number/ml after 48 h of treatment
Protocol: Monolayers of 60% confluent IB3-1 cells were seeded in 24- or 12-well plates in LHC-8 medium in the presence of 5% FBS. After 24 h, TMA derivatives were added at serial dilutions and incubated for further 2-3 days. The effects of compounds (TMA derivatives) on the cell proliferation were analyzed as elsewhere described. A first analysis was performed with serial dilutions to obtain 50 μM, 200 μM, and 800 μM solutions. In order to determine IC50 values, the following concentrations were used 12.5, 25, 50, 100, 200, and 800 μM. In order to prepare the cells for counting, they were washed with PBS 1X and detached with trypsin/EDTA. Cells were suspended in physiological solution and counted with a Z2 Coulter Counter (Coulter Electronics, Hialeah, FL, USA). The cell number/ml was determined as IC50 after 2 days of culture, when untreated cells are in log phase of cell growth.
In order to obtain preliminary information on the biological properties of TMA derivatives, their effects on cell growth were examined on IB3-1 cell line, excellent biological model to study new potential anti-inflammatory molecules. The use of this cell line to study the expression of proinflammatory molecules under a variety of stimuli is well established. Monolayers of 60% confluent IB3-1 cells were seeded in 12-well plate in LHC-8 medium with 5% FBS. After 24 h, compounds were added at different concentrations and the cell number/ml was determined after further 48 h of culture.

IL-8 mRNA = test: RT-qPCR quantification of IL-8 mRNA in TNF-α-induced IB3-1 cells; format: cell-based, human; details: Homo sapiens, IB3-1, 24 h, TNF-α-induced IB3-1 cells, RT-qPCR, na = not active at the used concentrations
Protocol: Monolayers of 60% confluent IB3-1 cells were seeded in 6- or 12-well plates in LHC-8 medium in the presence of 5% FBS. After 24 h, pure derivatives were added, 5 h before stimulation with TNF-α 80 ng/ml (ORF Genetics, Kopavogur, Iceland), and incubated for a further 24 h. Total RNA was extracted using TRIzol Reagent (Sigma-Aldrich, St. Louis, MO) following the manufacturer's instructions. Reverse transcription (RT) was performed using Reverse Transcription System kit (Promega, Madison, WI): 1 μg of total RNA was reverse transcribed in the presence of 5 mM MgCl2, 1X reverse transcription buffer (10 mM Tris-HCl, 50 mM KCl, and 0.1% Triton X-100), 1 mM each dNTPs, 20 U recombinant Rnasin Ribonuclease Inhibitor, 15 U AMV Reverse Transcriptase, and 0.5 μg oligo(dT)15 primers in a total volume of 20 μl for 10 min at 70°C and 60 min at 42°C. The resulting cDNA was quantified by relative quantitative real-time PCR (real-time qPCR). For real-time qPCR, 1 μl of cDNA was used for each SYBR Green reaction to quantify the relative expression of IL-8. Each 25 μl of total reaction volume contained 1 μl of cDNA, 10 pmol of primers, 1 iQTM SYBR Green Supermix (Bio-Rad Laboratories Inc., Hercules, CA). Real-time PCRs were performed for a total of 40 cycles (denaturation, 95°C for 10 s; annealing, 68°C for 30 s for IL-8, 65°C for 30 s for IL-6; elongation, 72°C for 60 s) using an iCycler IQ5 (Bio-Rad Laboratories Inc., Hercules, CA). Primer sequences were as follows: IL-8 forward: 5′-GTGCAGTTTTGCCAAGGAGT-3′ and IL-8 reverse: 5′-TTATGAATTCTCAGCCCTCTTCAAAAACTTCTC-3′. The relative proportions of each amplified template were determined utilizing the threshold cycle (CT) value for each performed PCR. The DDCt method was used to compare gene expression data. Each sample was quantified in duplicate. Changes in mRNA expression level were calculated following normalization with the GAPDH calibrator gene (housekeeping gene) and expressed as fold change over untreated samples [24]. Duplicates of negative controls (no template cDNA) were also run with every experimental plate to assess specificity and indicate potential contamination.
With the aim to study the effective anti-inflammatory properties of these new psoralen derivatives, we decided to further characterize the TMA derivatives for their potential activities on the expression of IL-8 gene, known to be involved in the lung inflammatory process in CF. […] More specifically, we were first interested in identifying compounds with low antiproliferative activity, but effective in downmodulating inflammatory gene expression without achieving a full suppression of these genes. We therefore employed IB3-1 cystic fibrosis cells, incubated for 5 h with two concentrations (1 μM and 10 μM) of selected compounds, and then treated with TNF-α ([…]). In the IB3-1 cystic fibrosis cellular model, NF-κB-dependent genes, including the gene encoding for the proinflammatory protein IL-8, generally are activated following infection with P. aeruginosa or treatment with TNF-α or IL-1β [26, 28, 31]. This feature is very important in the pathophysiology of CF, since several clinical complications are caused by exacerbation of this inflammatory response. After 1 day of incubation, cellular RNA was isolated for RT-qPCR analysis. All the TMA analogues found to be active in inhibiting NF-κB/DNA interactions were analyzed for their effects on inhibition of TNF-α-induced accumulation of IL-8 mRNA.

[1] = system: other cytokines, chemokines, and growth factors; test: Bioplex analysis of other secreted proteins in TNF-α-induced IB3-1 cells; format: cell-based, human; details: 1 μM, TNF-α-stimulated IB3-1 cells, all secreted proteins analyzed except IP-10
Protocol: The Bioplex cytokine assay is designed for the multiplexed quantitative measurement of multiple cytokines in a single well using as little as 50 μl of sample. In our experiments, the premixed multiplex beads (27-plex) of the Bioplex human cytokines were used. 50 μl of cytokine standards or samples (supernatants recovered from treated cells and diluted to 2 μg/μl) were incubated with 50 μl of anticytokine conjugated beads in 96-well filter plates for 30 min at room temperature with shaking. Plates were washed by vacuum filtration three times with 100 μl of Bioplex wash buffer, 25 μl of diluted detection antibody were added, and plates were incubated for 30 min at room temperature with shaking. After three filter washes, 50 μl of streptavidin-phycoerythrin were added, and the plates were incubated for 10 min at room temperature with shaking. Finally, plates were washed by vacuum filtration three times, beads were suspended in Bioplex assay buffer, and samples were analyzed on a Bio-Rad 96-well plate reader using the Bioplex Suspension Array System and Bioplex Manager software (Bio-Rad Laboratories Inc., Hercules, CA).
In order to verify the effects on the secretion of IL-8 by IB3-1 cells, Luminex technology was employed to detect and quantify proteins secreted into the medium. […]

Cc1oc2c(C)cc3c(C)cc(=O)oc3c2c1C [Compound 1]
IC50 (IB3-1 cells): > 800 µM | inhibition at 1 µM (IL-8 mRNA; 1 μM compound): 57% | inhibition at 10 µM (IL-8 mRNA; 10 μM compound): 56% | Variation of other secreted proteins [1]: less than 10%
